Patent publication US8426446B2, “Acrylamide derivative and use thereof in manufacture of medicament” (Beijing Shiqiao Biopharm Co. Ltd., priority 2009, dated 2013)

Tested on: Human Leukemia Cell K562
Test: Inhibitory effects on Human Leukemia Cell K562 (MTT)
Type: cell-based
Conditions: Homo sapiens, K562 cells, 72 h~120 h
Method: K562 cells were seeded in RPMI1640 cell culture solution containing 10% of fetal calf serum (supplemented with 100 ku/L of penicillin and streptomycin each). Culture dish was placed in the cell incubator under 5% of CO2 at 37° C. The culture solution was centrifuged and replaced every 2-3 days to passage and collect cells.
Cells in logarithmic growth phase were formulated into the cell suspensions at the required concentration with RPMI1640 culture solution containing 10% fetal calf serum. The resulting mixture was added to 96-wells cell culture plate at 3,000 cells per well (100 μl); after 12 hours of culture, to each well was added different amount of stock solution. The final concentrations of the samples are 100 μg/ml, 10 μg/ml, 1 μg/ml, […], and 0.01 μg/ml respectively in triplicate. After 72 h˜120 h, supernatant was discarded. To each well was added […] fresh serum-free culture solution containing 5 mg/ml blue tetrazolium (MTT). After culturing for 4 hours at 37° C., the mixture was centrifuged at 3000 rpm/min and the supernatant was discarded. Formazan was dissolved with 200 μl DMSO. After vortex oscillation for 1 min, absorbance value (OD-value) was measured on microplate reader at the wavelength of 570/450 nm. Inhibition ratio=(control group OD-value−drug group OD-value)/control group OD-value×100%.

For `Cc1ccc(NC(=O)c2ccc(CN3CCC(N(C)C)C3)c(C(F)(F)F)c2)cc1NC(=O)/C=C/c1cccnc1` [compound 23, N-(4-methyl-3-(3-(pyridin-3-yl)acrylamido)phenyl)-4-(((S)-3-(dimethylamino)pyrrolidin-1-yl)methyl)-3-(trifluoromethyl)benzamide], which IC50 is on record?
Its IC50 is less than 1 nM.

For `Cc1ccc(C(=O)Nc2ccc(Br)cc2F)cc1NC(=O)/C=C/c1cccnc1` [compound 52, N-(4-bromo-2-fluorophenyl)-4-methyl-3-(3-(pyridin-3-yl)acrylamido)benzamide], which IC50 is on record?
The IC50 was less than 2 nM.

For `Cc1ccc(NC(=O)c2ccc(CN3CC[C@@H](N(C)C)C3)c(C(F)(F)F)c2)cc1NC(=O)/C=C/c1cncnc1` [compound 42, N-(4-methyl-3-(3-(pyrimidin-5-yl)acrylamido)phenyl)-4-(((R)-3-(dimethylamino)pyrrolidin-1-yl)methyl)-3-(trifluoromethyl)benzamide], which IC50 is on record?
Its IC50 is less than 1 nM.

Which IC50 does the source give for `Cc1ccc(C(=O)Nc2ccc(N3CCN(C)CC3)c(C(F)(F)F)c2)cc1NC(=O)/C=C/c1cccnc1` [compound 71, N-(4-(4-methylpiperazin-1-yl)-3-(trifluoromethyl)phenyl)-4-methyl-3-(3-(pyridin-3-yl)acrylamido)benzamide] here?
Its IC50 is less than 1 nM.

`Cc1ccc(C(=O)Nc2c(C)cccc2Cl)cc1NC(=O)/C=C/c1cccnc1` [compound 67, N-(2-chloro-6-methylphenyl)-4-methyl-3-(3-(pyridin-3-yl)acrylamido)benzamide] was tested. Which IC50 did it give?
The IC50 was 2 to 20 nM.

With `Cc1ccc(NC(=O)c2ccc(CN3CCOCC3)c(C(F)(F)F)c2)cc1NC(=O)/C=C/c1cccnc1` [compound 21, N-(4-methyl-3-(3-(pyridin-3-yl)acrylamido)phenyl)-4-(morpholin-4-ylmethyl)-3-(trifluoromethyl)benzamide] as the molecule, how does the IC50 read?
Its IC50 is 2 nM.

Which IC50 does the source give for `Cc1ccc(C(=O)Nc2ccc(Cl)c(C(F)(F)F)c2)cc1NC(=O)/C=C/c1cccnc1` [compound 58, N-(4-chloro-3-(trifluoromethyl)phenyl)-4-methyl-3-(3-(pyridin-3-yl)acrylamido)benzamide] here?
The IC50 was less than 1 nM.

`Cc1ccc(C(=O)Nc2ccc(OC(F)(F)F)cc2)cc1NC(=O)/C=C/c1cccnc1` [compound 53, N-(4-(trifluoromethoxy)phenyl)-4-methyl-3-(3-(pyridin-3-yl)acrylamido)benzamide] was tested. Which IC50 did it give?
Its IC50 is less than 1 nM.

For `Cc1ccc(C(=O)Nc2ccc(C)c(C(F)(F)F)c2)cc1NC(=O)/C=C/c1cncnc1` [compound 77, N-(4-methyl-3-(trifluoromethyl)phenyl)-4-methyl-3-(3-(pyrimidin-5-yl)acrylamido)benzamide], which IC50 is on record?
The IC50 was less than 1 nM.

How did the IC50 turn out when `Cc1ccc(NC(=O)c2ccc(CN3CCN(C)CC3)cc2)cc1NC(=O)/C=C/c1cccnc1` [compound 11, N-(4-methyl-3-(3-(pyridin-3-yl)acrylamido)phenyl)-4-((4-methylpiperazin-1-yl)methyl)benzamide] was run?
Its IC50 is less than 2 nM.

For `Cc1ccc(NC(=O)c2cc(C(F)(F)F)cc(C(F)(F)F)c2)cc1NC(=O)/C=C/c1cncnc1` [compound 31, N-(4-methyl-3-(3-(pyrimidin-5-yl)acrylamido)phenyl)-3,5-bis-(trifluoromethyl)benzamide], which IC50 is on record?
Its IC50 is less than 1 nM.

For `Cc1ccc(NC(=O)c2ccc(CN3CCC(N(C)C)C3)c(C(F)(F)F)c2)cc1NC(=O)/C=C/c1cncnc1` [compound 43, N-(4-methyl-3-(3-(pyrimidin-5-yl)acrylamido)phenyl)-4-(((S)-3-(dimethylamino)pyrrolidin-1-yl)methyl)-3-(trifluoromethyl)benzamide], which IC50 is on record?
Its IC50 is less than 1 nM.

Which IC50 does the source give for `Cc1ccc(C(=O)Nc2ccc(C)c(C(F)(F)F)c2)cc1NC(=O)/C=C/c1cccnc1` [compound 62, N-(4-methyl-3-(trifluoromethyl)phenyl)-4-methyl-3-(3-(pyridin-3-yl)acrylamido)benzamide] here?
Its IC50 is less than 1 nM.

Which IC50 does the source give for `Cc1ccc(NC(=O)c2cc(C(F)(F)F)cc(C(F)(F)F)c2)cc1NC(=O)/C=C/c1cccnc1` [compound 5, N-(4-methyl-3-(3-(pyridin-3-yl)acrylamido)phenyl)-3,5-bis-(trifluoromethyl)benzamide] here?
The IC50 was 1 to 20 nM.

Same assay, conditions: K562 cells, 72 h~120 h

`Cc1ccc(NC(=O)c2ccc(CN3CCC(N(C)C)C3)c(C(F)(F)F)c2)cc1NC(=O)/C=C/c1cccnc1` (stereo not drawn) [compound 24, N-(4-methyl-3-(3-(pyridin-3-yl)acrylamido)phenyl)-4-((3-(dimethylamino)pyrrolidin-1-yl)methyl)-3-(trifluoromethyl)benzamide] was tested. Which IC50 did it give?
The IC50 was less than 1 nM.
